A short description of the data set: RP, Waters XBridge C18, 50 × 2.1 mm, 3.5 µm, 30 °C, 0.2 mL/min, estimated dead time 0.55 min; A: water + 0.1% formic acid, pH 3; B: methanol + 0.1% formic acid, pH 3; gradient (min/%B) 0/10 4/50 17/95 25/95 25.1/10 30/10. The conditions noted are these: stereoisomer not certain.

Turning to `Cc1cc(C2CC2)nc(Nc2ccccc2)n1` [Cyprodinil], the LC retention time is 9.4 min.
Regarding `Cc1cc(=O)[nH]c(C(C)C)n1` [Pyrimidinol], the LC retention time was 3.4 min.
Regarding `CC(C1CC1)C(O)(Cn1cncn1)c1ccc(Cl)cc1` (stereo not given) [Cyproconazole], the LC retention time is 11.5 min.
`COc1cccc(C2(O)CCCCC2CN(C)C)c1` (stereo not given) [Tramadol]: the LC retention time was 4.9 min.
Consider `CC1(C)CC1C(=O)NC(=CCCCCSCC(N)C(=O)O)C(=O)O` (stereo not given) [Cilastatin], for which the LC retention time is 5.2 min.
Take `CCNc1nc(Cl)nc(NCC)n1` [Simazine]: the LC retention time was 6.9 min.
On to `CC(Oc1ccc(Cl)cc1Cl)C(=O)O` (stereo not given) [Dichlorprop], for which the LC retention time is 10.7 min.
Regarding `COCc1cnc(C2=NC(C)(C(C)C)C(=O)N2)c(C(=O)O)c1` (stereo not given) [Imazamox], the LC retention time is 5.7 min.
The same measure for `Clc1cccc(N2CCNCC2)c1` [1-(3-Chlorophenyl)piperazine]: 5.2 min; for `Nc1ccc(S(=O)(=O)Nc2nccs2)cc1` [Sulfathiazole]: 2.8 min.
As for `CCN(CC)C(=O)C(C)Oc1cccc2ccccc12` (stereo not given) [Napropamid], the LC retention time was 11.7 min.
On to `Oc1ccc(Cl)cc1` [4-Chlorophenol], for which the LC retention time is 7.3 min.
On to `CN(C)S(N)(=O)=O` [N,N-Dimethylsulfamide], for which the LC retention time was 1.1 min.
Turning to `O=c1[nH]c(Cl)c(Cl)cc1Cl` [3,5,6-Trichloro-2-pyridinol], the LC retention time is 9.7 min.
As to `CC(=O)OC1C(C)OC(n2cc(F)c(N)nc2=O)C1OC(C)=O` (stereo not given) [2',3'-di-O-acetyl-5'-deoxy-5-fluorocytidine], the LC retention time was 5.2 min.
Take `CC(C)N(C(=O)CS(=O)(=O)O)c1ccccc1` [Propachlor ESA]: the LC retention time is 5.9 min.
As for `COCCc1ccc(OCC(O)CNC(C)C)cc1` (stereo not given) [Metoprolol], the LC retention time was 5.1 min.
As for `CC(C(=O)O)c1cccc(C(=O)c2ccccc2)c1` (stereo not given) [Ketoprofen], the LC retention time is 9.6 min.
As to `Nc1ccc(S(=O)(=O)Nc2ncccn2)cc1` [Sulfadiazine], the LC retention time is 2.2 min.
Turning to `COC(=O)Nc1cccc(OC(=O)Nc2cccc(C)c2)c1` [Phenmedipham], the LC retention time is 9.5 min.
For `CCNc1nc(NC(C)C)nc(OC)n1` [Atraton], the LC retention time was 5.7 min.
The same measure for `CC(C)N(C(=O)C(=O)O)c1ccc(F)cc1` [Flufenacet OXA]: 6.2 min; for `Cc1ccc(NS(=O)(=O)N(C)C)cc1` [N,N-Dimethyl-N'-p-tolylsulphamide]: 7.5 min; for `CCNc1nc(NC(C)(C)C)[nH]c(=O)n1` [Terbutylazine-2-hydroxy]: 5.6 min.
Take `CNCCC(Oc1ccccc1C)c1ccccc1` (stereo not given) [Atomoxetine]: the LC retention time was 8 min.
Take `Clc1ccccc1C(c1ccccc1)(c1ccccc1)n1ccnc1` [Clotrimazole]: the LC retention time was 8.8 min.
In the case of `CCCCc1ncc(C=C(Cc2cccs2)C(=O)O)n1Cc1ccc(C(=O)O)cc1` [Eprosartan], the LC retention time was 6.3 min.
For `CCOCN(C(=O)CS(=O)(=O)O)c1c(C)cccc1CC` [Acetochlor ESA], the LC retention time is 7.7 min.
As to `CCCC(C)C1(CC)C(=O)NC(=S)NC1=O` (stereo not given) [Thiopental], the LC retention time is 9 min.
The same measure for `N#Cc1nn(-c2c(Cl)cc(C(F)(F)F)cc2Cl)c(N)c1C(F)(F)F` [Fipronil-desulfinyl]: 12.5 min; for `CN1C(=O)CN=C(c2ccccc2)c2cc(Cl)ccc21` [Diazepam]: 10.1 min.
In the case of `CCCC1CC(C(=O)NC(C(C)Cl)C2OC(SC)C(O)C(O)C2O)N(C)C1` (stereo not given) [Clindamycin], the LC retention time is 6.7 min.
Consider `CCNc1nc(NC(C)C)[nH]c(=O)n1` [Atrazine-2-hydroxy], for which the LC retention time was 4.4 min.
For `CCC1(c2ccccc2)C(=O)NCNC1=O` [Primidone], the LC retention time is 5.4 min.
Take `N#Cc1nn(-c2c(Cl)cc(C(F)(F)F)cc2Cl)c(N)c1SC(F)(F)F` [Fipronil-sulfide]: the LC retention time is 13 min.
On to `O=[N+]([O-])/N=C1\NCCN1Cc1ccc(Cl)nc1` [Imidacloprid], for which the LC retention time was 4.8 min.
In the case of `CNC1(c2ccccc2Cl)CCCCC1=O` (stereo not given) [Ketamine], the LC retention time is 4.6 min.
The same measure for `O=S(=O)(O)NC1CCCCC1` [Cyclamate]: 3.6 min; for `N#Cc1c(Cl)cccc1Cl` [Dichlobenil]: 8.5 min.
`CN(C)C(=O)Nc1ccc(Cl)cc1` [Monuron]: the LC retention time was 6.7 min.
Regarding `Cc1cc(Cl)ccc1OCC(=O)O` [MCPA], the LC retention time is 9.5 min.
With `NCC(O)COc1ccc(CC(N)=O)cc1` (stereo not given) [Atenolol-desisopropyl], the LC retention time was 1 min.
As for `CCCCCCCCCC[N+](C)(C)[O-]` [DDAO], the LC retention time was 10.4 min.
In the case of `CCCCC1=NC2(CCCC2)C(=O)N1Cc1ccc(-c2ccccc2-c2nn[nH]n2)cc1` [Irbesartan], the LC retention time was 9.2 min.
Turning to `Oc1ccc(C(F)(F)F)cc1` [4-Trifluoromethylphenol], the LC retention time is 8.9 min.
As to `CCOC(=O)C1CC(=O)C(=C(O)C2CC2)C(=O)C1` (stereo not given) [Trinexapac-ethyl], the LC retention time is 8.9 min.
With `COCCOCCOC` [Diglyme], the LC retention time was 3.2 min.
On to `O=C(NCCN1CCOCC1)c1ccc(Cl)cc1` [Moclobemide], for which the LC retention time is 4.5 min.
`CC(C)c1ccc(N)cc1` [4-Isopropylaniline]: the LC retention time was 5.2 min.
Regarding `O=C(O)CNS(=O)(=O)C(F)(F)C(F)(F)C(F)(F)C(F)(F)C(F)(F)C(F)(F)C(F)(F)C(F)(F)F` [Perfluorooctane sulfonamidoacetic acid], the LC retention time is 15.9 min.
Regarding `CC(Cc1ccc(C(C)(C)C)cc1)CN1CCCCC1` (stereo not given) [Fenpropidin], the LC retention time is 9.5 min.
As to `O=C(Nc1ccccc1-c1ccc(Cl)cc1)c1cccnc1Cl` [Boscalid], the LC retention time was 10.5 min.
For the compound `CNC(=C[N+](=O)[O-])NCCS(=O)Cc1ccc(CN(C)C)o1` (stereo not given) [Ranitidine-S-oxide], the LC retention time was 0.8 min.
In the case of `CON=C(C(=O)OC)c1ccccc1COc1ccccc1C` [Kresoxim-methyl], the LC retention time is 12.5 min.
With `Cc1cccc(C)c1N(Cn1cccn1)C(=O)C(=O)O` [Metazachlor OXA], the LC retention time is 5.5 min.
For `COc1cccc(C(=O)NN(C(=O)c2cc(C)cc(C)c2)C(C)(C)C)c1C` [Methoxyfenozide] the value was 10.9 min; for `CCOc1nc2cccc(C(=O)O)c2n1Cc1ccc(-c2ccccc2-c2nn[nH]n2)cc1` [Candesartan], 9.3 min; for `CC(C)N(C(=O)COc1nnc(C(F)(F)F)s1)c1ccc(F)cc1` [Flufenacet], 11.7 min.
Take `CCc1cccc(CC)c1N(COC)C(=O)CCl` [Alachlor]: the LC retention time was 11.7 min.
For `CC(C)(C)NCC(O)c1ccc(O)c(CO)c1` (stereo not given) [Albuterol] the value was 2 min.

Source of the values: the RepoRT retention time repository (doi:10.1021/es4044374).
